Assay results taken from the supplement of paper PMC4862054.
Several values for one entry are separate records, joined by “and”; a condition that tells them apart may be missing. Equal values may be shown once.

Tests used:
Assay in all cases: normalised viability (% of control), CellTiter-Blue; higher = more viable cells (about 100 = DMSO control)
[1] = tested on: CAL-51; conditions: incubation time: 72 h
How it was run: (§1)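 The reported figure is normalised viability at a single listed concentration of the series. Breast cancer cell lines (20 µl suspension) went onto 384-well plates holding compound in 5 µl medium for 72 h. CellTiter-Blue (2.5 µl, 2 h, 37 °C) was read by fluorescence at 560/590 nm, and each plate was scaled to vehicle at 100 and a positive kill control at 0.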

[2] = tested on: CAL-148; conditions: incubation time: 72 h
How it was run: as §1

[3] = tested on: MDA-MB-436; conditions: 1000 nM; incubation time: 72 h
How it was run: as §1

[4] = tested on: MFM-223; conditions: incubation time: 72 h
How it was run: as §1

[5] = tested on: HCC1143; conditions: 1000 nM; incubation time: 72 h
How it was run: as §1

[6] = tested on: HDQ-P1; conditions: incubation time: 72 h
How it was run: as §1

[7] = tested on: MDA-MB-231; conditions: incubation time: 72 h
How it was run: as §1

[8] = tested on: MDA-MB-468; conditions: incubation time: 72 h
How it was run: as §1

[9] = tested on: Hs578T; conditions: incubation time: 72 h
How it was run: as §1

[10] = tested on: HCC1937; conditions: incubation time: 72 h
How it was run: as §1

[11] = tested on: MDA-MB-453; conditions: incubation time: 72 h
How it was run: as §1

[12] = tested on: CAL-85-1; conditions: incubation time: 72 h
How it was run: as §1

[13] = tested on: BT-549; conditions: incubation time: 72 h
How it was run: as §1

[14] = tested on: HCC1599; conditions: incubation time: 72 h
How it was run: as §1

[15] = tested on: SK-BR-3; conditions: incubation time: 72 h
How it was run: as §1

[16] = tested on: CAL-120; conditions: incubation time: 72 h
How it was run: as §1

[17] = tested on: CAL-51; conditions: incubation time: 72 h; remark: listed apart in the source
Procedure: (§2)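 DSRT, CellTiter-Blue viability, 72 h incubation. Signal is normalised to DMSO and benzethonium chloride controls. Value is the normalised response at dose 3.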

[18] = tested on: CAL-148; conditions: incubation time: 72 h; remark: listed apart in the source
Procedure: as §2

[19] = tested on: MDA-MB-436; conditions: incubation time: 72 h
Procedure: as §2

[20] = tested on: MFM-223; conditions: incubation time: 72 h; remark: listed apart in the source
Procedure: as §2

[21] = tested on: BT-474; conditions: incubation time: 72 h
Procedure: as §2

[22] = tested on: HCC1143; conditions: 100 nM; incubation time: 72 h
Procedure: as §2

[23] = tested on: HDQ-P1; conditions: incubation time: 72 h; remark: listed apart in the source
Procedure: as §2

[24] = tested on: MDA-MB-231; conditions: incubation time: 72 h; remark: listed apart in the source
Procedure: as §2

[25] = tested on: MDA-MB-468; conditions: incubation time: 72 h; remark: listed apart in the source
Procedure: as §2

[26] = tested on: Hs578T; conditions: incubation time: 72 h; remark: listed apart in the source
Procedure: as §2

[27] = tested on: HCC1937; conditions: incubation time: 72 h; remark: listed apart in the source
Procedure: as §2

[28] = tested on: MDA-MB-453; conditions: incubation time: 72 h; remark: listed apart in the source
Procedure: as §2

[29] = tested on: CAL-85-1; conditions: incubation time: 72 h; remark: listed apart in the source
Procedure: as §2

[30] = tested on: BT-549; conditions: incubation time: 72 h; remark: listed apart in the source
Procedure: as §2

[31] = tested on: DU-4475; conditions: incubation time: 72 h
Procedure: as §2

[32] = tested on: HCC1599; conditions: incubation time: 72 h; remark: listed apart in the source
Procedure: as §2

[33] = tested on: SK-BR-3; conditions: incubation time: 72 h; remark: listed apart in the source
Procedure: as §2

[34] = tested on: CAL-120; conditions: incubation time: 72 h; remark: listed apart in the source
Procedure: as §2

Compound `CC(C)(C#N)c1cc(Cn2cncn2)cc(C(C)(C)C#N)c1` [Anastrozole] has a normalised viability ([1]; 30 nM) of 106%, a normalised viability ([2]; 30 nM) of 96.8% and a normalised viability [3] of 83.6%. The normalised viability ([4]; 1000 nM) was 90.4%, the normalised viability [5] was 83.5% and the normalised viability ([6]; 30 nM) was 89.2%. The normalised viability ([7]; 1000 nM) was 80.4%, the normalised viability ([8]; 1000 nM) was 101% and the normalised viability ([9]; 1000 nM) was 95.7%. It also gave a normalised viability ([10]; 1000 nM) of 95.4%, a normalised viability ([11]; 30 nM) of 91% and a normalised viability ([12]; 30 nM) of 86.5%. The normalised viability ([13]; 1000 nM) was 99.1%, the normalised viability ([14]; 1000 nM) was 88.3% and the normalised viability ([15]; 1000 nM) was 98.7%. The normalised viability ([16]; 1000 nM) was 89.5%, the normalised viability ([17]; 10 nM) was 109% and the normalised viability ([18]; 10 nM) was 86.8%. It also gave a normalised viability ([19]; 100 nM) of 96%, a normalised viability ([20]; 100 nM) of 94.2% and a normalised viability ([21]; 100 nM) of 101%. The normalised viability [22] was 100%, the normalised viability ([23]; 10 nM) was 99.2% and the normalised viability ([24]; 100 nM) was 92.7%. For the same compound, the normalised viability ([25]; 100 nM) was 107%, the normalised viability ([26]; 100 nM) was 88.4% and the normalised viability ([27]; 100 nM) was 93.1%. The normalised viability ([28]; 10 nM) was 97.7%, the normalised viability ([29]; 10 nM) was 90.7% and the normalised viability ([30]; 100 nM) was 95.7%. It also gave a normalised viability ([31]; 10 nM) of 98.6%, a normalised viability ([32]; 100 nM) of 102% and a normalised viability ([33]; 100 nM) of 77.3%. It also gave a normalised viability ([34]; 100 nM) of 88.5%.
Work on `O=C(O)CCCc1ccc(N(CCCl)CCCl)cc1` [Chlorambucil] yielded a normalised viability ([1]; 30 nM) of 112%, a normalised viability ([2]; 30 nM) of 104% and a normalised viability [3] of 91.8%. The normalised viability ([4]; 1000 nM) was 106%, the normalised viability [5] was 93.9% and the normalised viability ([6]; 30 nM) was 94.1%. It also gave a normalised viability ([7]; 1000 nM) of 109%, a normalised viability ([8]; 1000 nM) of 68.3% and a normalised viability ([9]; 1000 nM) of 102%. It also gave a normalised viability ([10]; 1000 nM) of 68.7%, a normalised viability ([11]; 30 nM) of 94.3% and a normalised viability ([12]; 30 nM) of 92.7%. The normalised viability ([13]; 1000 nM) was 102%, the normalised viability ([14]; 1000 nM) was 97.1% and the normalised viability ([15]; 1000 nM) was 105%. For the same compound, the normalised viability ([16]; 1000 nM) was 98.5%, the normalised viability ([17]; 10 nM) was 107% and the normalised viability ([18]; 10 nM) was 100%. It also gave a normalised viability ([19]; 100 nM) of 95.8%, a normalised viability ([20]; 100 nM) of 95.5% and a normalised viability ([21]; 100 nM) of 115%. For the same compound, the normalised viability [22] was 104%, the normalised viability ([23]; 10 nM) was 112% and the normalised viability ([24]; 100 nM) was 103%. It also gave a normalised viability ([25]; 100 nM) of 99.8%, a normalised viability ([26]; 100 nM) of 106% and a normalised viability ([27]; 100 nM) of 87.9%. For the same compound, the normalised viability ([28]; 10 nM) was 106%, the normalised viability ([29]; 10 nM) was 96% and the normalised viability ([30]; 100 nM) was 100%. For the same compound, the normalised viability ([31]; 10 nM) was 109%, the normalised viability ([32]; 100 nM) was 132% and the normalised viability ([33]; 100 nM) was 97.8%. The normalised viability ([34]; 100 nM) was 109%.
For `CO[C@H]1C[C@@H]2CC[C@@H](C)[C@@](O)(O2)C(=O)C(=O)N2CCCC[C@H]2C(=O)O[C@H]([C@H](C)C[C@@H]2CC[C@@H](OCCO)[C@H](OC)C2)CC(=O)[C@H](C)/C=C(\C)[C@@H](O)[C@@H](OC)C(=O)[C@H](C)C[C@H](C)/C=C/C=C/C=C/1C` [Everolimus], the normalised viability ([1]; 3 nM) was 49.6% and 52.9%, the normalised viability ([2]; 3 nM) was 50.4% and 48.4% and the normalised viability ([4]; 100 nM) was 50% and 45.1%. The normalised viability ([6]; 3 nM) was 71.3% and 59.9%, the normalised viability ([7]; 100 nM) was 48.1% and 68.9% and the normalised viability ([8]; 100 nM) was 72.6% and 66.8%. For the same compound, the normalised viability ([9]; 100 nM) was 62.4% and 51%, the normalised viability ([10]; 100 nM) was 48.8% and 48.4% and the normalised viability ([11]; 3 nM) was 30.8% and 28.6%. For the same compound, the normalised viability ([12]; 3 nM) was 63.9% and 54%, the normalised viability ([13]; 100 nM) was 62.1% and 54.9% and the normalised viability ([14]; 100 nM) was 87% and 69.7%. For the same compound, the normalised viability ([15]; 100 nM) was 59.7% and 44.4%, the normalised viability ([16]; 100 nM) was 54.1% and 36.7% and the normalised viability ([17]; 1 nM) was 70.1% and 73.5%. The normalised viability ([18]; 1 nM) was 65.8% and 59.4%, the normalised viability ([19]; 10 nM) was 86% and 80.2% and the normalised viability ([20]; 10 nM) was 55.1% and 49%. For the same compound, the normalised viability ([21]; 10 nM) was 65.6% and 61.3%, the normalised viability ([23]; 1 nM) was 80.8% and 75% and the normalised viability ([24]; 10 nM) was 92.7% and 69.3%. For the same compound, the normalised viability ([25]; 10 nM) was 84.1% and 59.7%, the normalised viability ([26]; 10 nM) was 42.7% and 48.8% and the normalised viability ([27]; 10 nM) was 60.5% and 63.5%. The normalised viability ([28]; 1 nM) was 44.9% and 39.9%, the normalised viability ([29]; 1 nM) was 71.8% and 59.9% and the normalised viability ([30]; 10 nM) was 66.5% and 53.2%. The normalised viability ([31]; 1 nM) was 96.6% and 83.4%, the normalised viability ([32]; 10 nM) was 81.1% and 87.6% and the normalised viability ([33]; 10 nM) was 48.1% and 51.2%. For the same compound, the normalised viability ([34]; 10 nM) was 55.3% and 43%.
With `Cc1ccc(NC(=O)c2ccc(CN3CCN(C)CC3)cc2)cc1Nc1nccc(-c2cccnc2)n1` [Imatinib] the normalised viability ([1]; 30 nM) was 106% and 99.3%, the normalised viability ([2]; 30 nM) was 89.8% and 88.6% and the normalised viability [3] was 74.6% and 90.3%. The normalised viability ([4]; 1000 nM) was 104% and 100%, the normalised viability [5] was 85.9% and 97% and the normalised viability ([6]; 30 nM) was 89.2% and 107%. For the same compound, the normalised viability ([7]; 1000 nM) was 92.1% and 110%, the normalised viability ([8]; 1000 nM) was 106% and 109% and the normalised viability ([9]; 1000 nM) was 100% and 103%. For the same compound, the normalised viability ([10]; 1000 nM) was 80.5% and 85.3%, the normalised viability ([12]; 30 nM) was 91.2% and 88% and the normalised viability ([13]; 1000 nM) was 95.8% and 88.7%. For the same compound, the normalised viability ([14]; 1000 nM) was 109% and 102%, the normalised viability ([15]; 1000 nM) was 103% and 115% and the normalised viability ([16]; 1000 nM) was 86.6% and 91.9%. The normalised viability ([17]; 10 nM) was 106% and 107%, the normalised viability ([18]; 10 nM) was 84.3% and 89% and the normalised viability ([19]; 100 nM) was 94.8% and 107%. The normalised viability ([20]; 100 nM) was 94.8% and 92.4%, the normalised viability ([21]; 100 nM) was 103% and 126% and the normalised viability [22] was 85.9% and 82.9%. For the same compound, the normalised viability ([23]; 10 nM) was 106% and 126%, the normalised viability ([25]; 100 nM) was 99.2% and 98% and the normalised viability ([26]; 100 nM) was 95.2% and 103%. For the same compound, the normalised viability ([27]; 100 nM) was 94.5%, the normalised viability ([28]; 10 nM) was 104% and 94.3% and the normalised viability ([29]; 10 nM) was 102% and 92.3%. The normalised viability ([30]; 100 nM) was 102% and 109%, the normalised viability ([31]; 10 nM) was 106% and 95.3% and the normalised viability ([32]; 100 nM) was 96.5% and 97.5%. The normalised viability ([33]; 100 nM) was 86.2% and 75.6% and the normalised viability ([34]; 100 nM) was 87.8% and 94.7%.
